Earlier results as cited in US20100112181A1, “Recovery of Antioxidants from Decaffeination Process” (priority 2008, published 2010).

Settings: reported by K. Iwai et al., 2004

Substance: dicaffeoylquinic acids [di-CQA's]
- antioxidant activity relative to CQA's (in words): higher antioxidant activity than the CQA's
